Read-outs that look alike come from different tables or passages of the source.
How the values were obtained:
[1] = Stability in simulated intestinal fluid (SIF, with enzymes); details: for Concentration Found in SIF: SIF pH 6.8 with pancreatin
[2] = pKa determination, conventional UV spectrophotometer method; format: physicochemical; details: aqueous buffer
Text: The instruments employed were UV spectrophotometer 8453 UV-Vis Diode Array (Agilent, Santa Clara, CA, USA), and Multiskan* GO Microplate Spectrophotometer (Thermo Scientific, Waltham, MA, USA). Data were captured using the Thermo Scientific SkanIt Software (Thermo Scientific, Version 3.2). Buffer Maker Software (version 1.0.1.55, BPP Marcin Borkowski, Marki, Poland,) was used for preparation of buffers with constant ionic strength for pKa determination. The pH-meter employed throughout the study was a PH 211 Hanna (Padova, Italy) equipped with a combined glass electrode.
pKa determination was carried out using conventional UV and microplate spectrophotometer methods. Acetic acid, tris base and sodium carbonate were used to prepare stable buffers in the pH range of 3 to 12. The buffers were prepared to give a final buffer molarity of 0.01 M. Either NaOH or HCl were used for pH adjustment of the various buffers, whose ionic strength was kept constant at 0.02 by addition of NaCl.
Five mL aliquots of buffer of various pH were transferred into separate tubes. To each tube, mitragynine stock solution in acetonitrile (4 mg/mL) was added to give a final drug concentration of 20 µg/mL. The percentage of organic content in final buffer preparation was kept below 1%. The prepared solutions were immediately scanned in the range of 200–400 nm.
Stock solution of mitragynine at 0.5 mg/mL was prepared in acetonitrile. Ten microliters of the stock solution was transferred into individual test tubes and diluted with 1.0 mL buffer of various pH to give a final concentration of 5 μg/mL. For absorbance spectrum analysis, 250 μL of the various pH buffer solutions spiked with drug were placed in a 96-well quartz UV-transparent microplate and immediately scanned in the range of 200–400 nm at a scanning rate of 200 nm/s in triplicates. The pKa was calculated with equation pKa = pH + log (d − dm/di − d), for basic compound, where di is the absorbance of the ionised species, d is the absorbance of the solution tested and dm is the absorbance of the neutral species.

mice = test system: mice; design: method as in Macko et al, 15; details: mitragynine salt solution, ref Macko et al, 15; cited from earlier work
[3] = Stability in simulated gastric fluid (SGF, with enzymes); details: for Concentration Found in SGF: SGF pH ~1.2 with pepsin, 37 °C
rats = test system: rats; design: method as in Macko et al, 15; details: mitragynine salt solution, ref Macko et al, 15; cited from earlier work
[4] = Stability in buffers pH 4, 7, 9 (percentage recovered); format: physicochemical; details: for percentage recovered: 20 µg/mL
Experimental: The HPLC system consisted of a Jasco delivery pump (Tokyo, Japan) equipped with autosampler connected to a Waters 2487 detector (Milford, MA, USA) coupled to Jasco Chromnav software (Version 2.0, Tokyo, Japan). Chromatographic separation was performed on a C8 Agilent Eclipse plus (4.6 mm i.d. × 250 mm, 5-μm particle size; Apple Valley, MN, USA). The HPLC-UV method was adapted from our previous study and revalidated for the present HPLC system. The method was employed to quantify mitragynine in partition coefficient, stability, dissolution and solubility studies.
For solubility studies, an excess of mitragynine was added to 1.0 mL each of distilled water or buffers at pH 4, 7 and 9. The test tubes were placed in a water bath shaker at 37 degrees Celsius at 100 cycles/min for 48 h until equilibrium. The samples were centrifuged at 3000 rpm for 5 min and supernatant was taken for quantification of mitragynine by HPLC-UV. […] A 0.1 mL aliquot was collected from each buffer system at intervals of 0, 0.5, 6.0 and 24.0 h for determination of mitragynine. Mitragynine concentrations were expressed as percentage recovered. All experiments were performed in triplicates.

**Q.** For CC[C@@H]1CN2CCc3c([nH]c4cccc(OC)c34)[C@@H]2C[C@@H]1/C(=C\OC)C(=O)OC [mitragynine], which “Concentration Found in SIF” value ([1]; 0 min, 37 °C) is on record?
**A.** 6700 ± 600 ng/mL

**Q.** What about the “RD (relative difference vs time 0) in SIF” value ([1]; 10 min) of the same compound?
**A.** −0.07%

**Q.** What about the “Concentration Found in SIF” value ([1]; 10 min, 37 °C) of the same compound?
**A.** 6690 ± 630 ng/mL

**Q.** What about the “Concentration Found in SIF” value ([1]; 20 min, 37 °C) of the same compound?
**A.** 6560 ± 670 ng/mL

**Q.** And the “RD (relative difference vs time 0) in SIF” value ([1]; 30 min)?
**A.** 4.43%

**Q.** And the “Concentration Found in SIF” value ([1]; 30 min, 37 °C)?
**A.** 6990 ± 210 ng/mL

**Q.** What about the “RD (relative difference vs time 0) in SIF” value ([1]; 40 min) of the same compound?
**A.** 4.94%

**Q.** And the “Concentration Found in SIF” value ([1]; 40 min, 37 °C)?
**A.** 7030 ± 130 ng/mL

**Q.** What about the “RD (relative difference vs time 0) in SIF” value ([1]; 50 min) of the same compound?
**A.** 3.49%

**Q.** And the “Concentration Found in SIF” value ([1]; 50 min, 37 °C)?
**A.** 6930 ± 130 ng/mL

**Q.** What about the “RD (relative difference vs time 0) in SIF” value ([1]; 60 min) of the same compound?
**A.** 2.49%

**Q.** What about the “Concentration Found in SIF” value ([1]; 60 min, 37 °C) of the same compound?
**A.** 6860 ± 10 ng/mL

**Q.** What about the “RD (relative difference vs time 0) in SIF” value ([1]; 120 min) of the same compound?
**A.** 1.31%

**Q.** What about the “Concentration Found in SIF” value ([1]; 120 min, 37 °C) of the same compound?
**A.** 6780 ± 790 ng/mL

**Q.** What about the “RD (relative difference vs time 0) in SIF” value ([1]; 180 min) of the same compound?
**A.** 3.46%

**Q.** And the “Concentration Found in SIF” value ([1]; 180 min, 37 °C)?
**A.** 6930 ± 770 ng/mL

**Q.** And the “stability in SIF (in words)” value ([1]; SIF pH 6.8, 3 h, 37 °C)?
**A.** considered stable

**Q.** What about the pKa ([2]; UV Spectrophotometer, Day 1, read-out: pKa, interday repeatability) of the same compound?
**A.** 8.18

**Q.** What about the pKa ([2]; UV Spectrophotometer, Day 2, read-out: pKa, interday repeatability) of the same compound?
**A.** 8.11

**Q.** What about the pKa ([2]; UV Spectrophotometer, Day 3, read-out: pKa, interday repeatability) of the same compound?
**A.** 8.15

**Q.** What about the pKa ([2]; pH 7.52, target pH 7.6, actual pH 7.52, 20 µg/mL, 248 nm, read-out: pKa) of the same compound?
**A.** 8.02

**Q.** And the pKa ([2]; pH 7.6, conventional UV method, mean over pH 7.6-9.0, read-out: pKa (Mean ± SD))?
**A.** 8.11 ± 0.11

**Q.** What about the pKa ([2]; pH 7.78, target pH 7.8, actual pH 7.78, 20 µg/mL, 248 nm, read-out: pKa) of the same compound?
**A.** 8.16

**Q.** And the pKa ([2]; pH 7.96, target pH 8.0, actual pH 7.96, 20 µg/mL, 248 nm, read-out: pKa)?
**A.** 8.17

**Q.** What about the pKa ([2]; pH 8.13, target pH 8.2, actual pH 8.13, 20 µg/mL, 248 nm, read-out: pKa) of the same compound?
**A.** 8.18

**Q.** And the pKa ([2]; pH 8.34, target pH 8.4, actual pH 8.34, 20 µg/mL, 248 nm, read-out: pKa)?
**A.** 8.13

**Q.** What about the pKa ([2]; pH 8.45, target pH 8.6, actual pH 8.45, 20 µg/mL, 248 nm, read-out: pKa) of the same compound?
**A.** 8.05

**Q.** What about the pKa ([2]; pH 8.71, target pH 8.8, actual pH 8.71, 20 µg/mL, 248 nm, read-out: pKa) of the same compound?
**A.** 8.27

**Q.** What about the pKa ([2]; pH 8.92, target pH 9.0, actual pH 8.92, 20 µg/mL, 248 nm, read-out: pKa) of the same compound?
**A.** 7.93

**Q.** What about the “dose up to which no adverse reactions were reported” value (mice) of the same compound?
**A.** 920 mg/kg

**Q.** What about the “Concentration Found in SGF” value ([3]; 0 min) of the same compound?
**A.** 18720 ± 50 ng/mL

**Q.** What about the “RD (relative difference vs time 0) in SGF” value ([3]; 10 min) of the same compound?
**A.** −0.21%

**Q.** And the “Concentration Found in SGF” value ([3]; 10 min)?
**A.** 18680 ± 230 ng/mL

**Q.** And the “RD (relative difference vs time 0) in SGF” value ([3]; 20 min)?
**A.** −20.00%

**Q.** What about the “Concentration Found in SGF” value ([3]; 20 min) of the same compound?
**A.** 14980 ± 880 ng/mL

**Q.** And the “RD (relative difference vs time 0) in SGF” value ([3]; 30 min)?
**A.** −22.5%

**Q.** And the “Concentration Found in SGF” value ([3]; 30 min)?
**A.** 14540 ± 580 ng/mL

**Q.** And the “Concentration Found in SGF” value ([3]; 40 min)?
**A.** 14190 ± 370 ng/mL

**Q.** What about the “RD (relative difference vs time 0) in SGF” value ([3]; 50 min) of the same compound?
**A.** −24.19%

**Q.** And the “Concentration Found in SGF” value ([3]; 50 min)?
**A.** 14110 ± 220 ng/mL

**Q.** What about the “RD (relative difference vs time 0) in SGF” value ([3]; 60 min) of the same compound?
**A.** −25.53%

**Q.** What about the “Concentration Found in SGF” value ([3]; 60 min) of the same compound?
**A.** 13940 ± 200 ng/mL

**Q.** And the “stability in SGF (in words)” value ([3]; SGF pH ≈ 1.2, 37 °C)?
**A.** not stable

**Q.** What about the “relative deviation / drug loss in SGF” value ([3]; from the 20 min time point onwards) of the same compound?
**A.** greater than 20%

**Q.** And the “dose up to which no adverse reactions were reported” value (rats)?
**A.** 806 mg/kg

**Q.** What about the “stability in buffer (in words)” value ([4]; pH 4) of the same compound?
**A.** appears to degrade over time

**Q.** What about the percentage recovered ([4]; pH 4 buffer, 0.5 h) of the same compound?
**A.** 100.6 ± 0.3%

**Q.** What about the percentage recovered ([4]; pH 4 buffer, 6 h) of the same compound?
**A.** 91.8 ± 1.0%

**Q.** And the percentage recovered ([4]; pH 4 buffer, 24 h)?
**A.** 88.8 ± 1.4%

**Q.** What about the “stability in buffer (in words)” value ([4]; pH 7 and 9, 24 h) of the same compound?
**A.** stable

**Q.** And the percentage recovered ([4]; pH 7 buffer, 0.5 h)?
**A.** 99.2 ± 0.4%

**Q.** And the percentage recovered ([4]; pH 7 buffer, 6 h)?
**A.** 96.1 ± 1.9%

**Q.** What about the percentage recovered ([4]; pH 7 buffer, 24 h) of the same compound?
**A.** 101.9 ± 0.9%

**Q.** And the percentage recovered ([4]; pH 9 buffer, 0.5 h)?
**A.** 101.3 ± 2.6%

**Q.** And the percentage recovered ([4]; pH 9 buffer, 6 h)?
**A.** 97.8 ± 0.3%

**Q.** What about the percentage recovered ([4]; pH 9 buffer, 24 h) of the same compound?
**A.** 95.5 ± 2.5%

From article PMC6272646, “Understanding the Physicochemical Properties of Mitragynine, a Principal Alkaloid of Mitragyna speciosa, for Preclinical Evaluation” (Molecules, 2015)
